Measured values: patent US8772269B2, “Use of sulfonamide-including compounds in combination with angiogenesis inhibitors” (Eisai R&D Management Co., Ltd., priority 2004, dated 2014)

Assays:
[1] = test system: human renal cancer cell line 786-O; assay: Subcutaneous transplantation model of 786-O, E7820 and Compound A; format: in vivo, nude mice; details: E7820 100 mg/kg twice a day, Compound A 100 mg/kg once a day, oral, 2 weeks; alone or combined
Experimental: Human renal cancer cell line 786-O (purchased from ATCC) was cultured in RPMI1640 (containing 10% FBS) to about 80% confluency in a 5% carbon dioxide incubator, and the cells were collected by trypsin-EDTA. The cells were diluted with 50% Matrigel-containing phosphate buffer to prepare a 1×10^8 cells/mL suspension, and the resulting cell suspension was subcutaneously transplanted in 0.1 mL volumes to nude mice at the side of their body. Starting from 7 days after the transplantation, E7820 (100 mg/kg, given twice a day for 2 weeks) and 4-(3-chloro-4-(cyclopropylaminocarbonyl)aminophenoxy)-7-methoxy-6-quinolinecarboxamide (100 mg/kg, given once a day for 2 weeks) were administered alone or in combination by the oral route. Tumor long and short axes were measured with a digimatic caliper (Mitsutoyo) and used to calculate both tumor volume and relative tumor volume according to the following equations. Tumor volume TV=tumor long axis(mm)×tumor short axis^2(mm^2)/2 Relative tumor volume RTV=tumor volume at the day of measurement/tumor volume at the first day of administration

[2] = test system: Human umbilical vein endothelial cells; assay: VEGF-induced cell proliferation in vascular endothelial cell proliferation assay (in vitro); format: cell-based; details: 3 days, absorbance relative to untreated cells
Experimental: Human umbilical vein endothelial cells were suspended in 2% FBS-containing Human endothelial-SFM Basal Growth Medium (Invitrogen Corporation) and adjusted to 1×10^4 cells/ml. The resulting cell suspension was dispensed in 100 μl aliquots into each well of 96-well plates and cultured at 37° C. in a 5% carbon dioxide incubator. On the next day, a solution containing E7820, a solution containing bevacizumab (Avastin®, purchased from Genentech), and a solution containing both E7820 and bevacizumab were respectively diluted with Human endothelial-SFM Basal Growth Medium containing 20 ng/ml VEGF (Genzyme Techne Corp.) and 2% FBS. The resulting diluted solutions were then added to the individual wells of the plates in a volume of 100 μl/well, followed by further culturing.
The combined effect was calculated according to the equation of Chou et al. (Adv. Enzyme Regul., 22, 27-55, 1984).

[3] = test system: human colon cancer cell line Colo320DM; assay: Subcutaneous transplantation model of Colo320DM, E7820 and bevacizumab; format: in vivo, nude mice; details: E7820 200 mg/kg twice a day oral 3 weeks; bevacizumab 25 mg/kg twice a week intravenous 3 weeks; alone or combined
Experimental: Human colon cancer cell line Colo320DM (purchased from Dainippon Pharmaceutical Co., Ltd., Japan) was cultured at 37° C. in RPMI1640 (containing 10% FBS) to about 80% confluency in a 5% carbon dioxide incubator, and the cells were collected by trypsin-EDTA. The cells were diluted with 50% Matrigel-containing phosphate buffer to prepare a 5×10^7 cells/mL suspension, and the resulting cell suspension was subcutaneously transplanted in 0.1 mL volumes to nude mice at the side of their body. Starting from 7 days after the transplantation, E7820 (200 mg/kg, given twice a day for 3 weeks by the oral route) and bevacizumab (25 mg/kg, given twice a week for 3 weeks by the intravenous route) were administered. Tumor long and short axes were measured with a digimatic caliper (Mitsutoyo) and used to calculate both tumor volume and relative tumor volume according to the following equations. Tumor volume TV=tumor long axis(mm)×tumor short axis^2(mm^2)/2 Relative tumor volume RTV=tumor volume at the day of measurement/tumor volume at the first day of administration

[4] = test system: human colon cancer cell line Colo320DM; assay: Subcutaneous transplantation model of Colo320DM, E7070 and bevacizumab; format: in vivo, nude mice; details: E7070 40 mg/kg/day i.v. Day 1-5, bevacizumab 25 mg/kg/day i.v. Days 1, 5, 8, 12; for Relative tumor volume (RTV) Mean ± SD: at Day 23; for Tx4 Mean ± SD: time for tumor to grow 4-fold of initial volume
Experimental: Human colon cancer cell line Colo320DM (purchased from ATCC) was cultured in RPMI1640 (containing 10% FBS) to about 80% confluency in a 5% carbon dioxide incubator, and the cells were collected by trypsin-EDTA. The cells were diluted with Hanks balanced solution to prepare a 5×10^7 cells/ml suspension, and the resulting cell suspension was subcutaneously transplanted in 0.1 mL volumes to nude mice at the side of their body.
After the transplantation, from the time point when the mean tumor volume reached 259 mm^3, E7070 (40 mg/kg/day) and bevacizumab (25 mg/kg/day) were administered alone or in combination.
E7070 alone was administered once a day for 5 days (Day 1 to Day 5) by the intravenous route. Bevacizumab alone was administered twice a week for 2 weeks (Days 1, 5, 8 and 12) by the intravenous route.
The co-treated group was administered with E7070 at Day 1 to Day 5 by the intravenous route and with bevacizumab at Days 1, 5, 8 and 12 by the intravenous route.
After starting the administration, tumor long and short axes were measured at a frequency of twice a week with a digimatic caliper (Mitsutoyo) and used to calculate the tumor volume according to the following equation. Tumor volume TV=tumor long axis(mm)×tumor short axis^2(mm^2)/2
For determination of the anti-tumor effect, the values of the following two parameters were used.
Tx4: Time (days) required for a tumor to grow 4-fold of the initial tumor volume
RTV: Relative tumor volume (RTV) at Day 23* • * RTV=tumor volume at Day 23/initial tumor volume at Day 1
Likewise, if the co-treated group produces a higher anti-tumor effect than the groups treated with either drug alone and has a significance level of 0.05<P<0.10, E7070 and bevacizumab are determined to have a synergistic tendency.

HCT116-C9 = assay: Cell growth inhibition assay (MTT method), cross resistance study; format: cell-based, human; details: Example 5, HCT116-C9, 72 hours, read-out: antiproliferative activity IC50
Text: E7070-resistant sub-clonal cell lines were used to evaluate the antiproliferative activity of E7820, LY186641, LY295501, LY-ASAP and CQS. HCT116-C9 was a sub-clone separated from the human colon cancer cell line HCT116 (American Type Culture Collection, Manassas, Va., U.S.A.), while HCT116-C9-C1 and HCT116-C9-C4 were E7070-resistant sub-clonal cell lines obtained by culturing this HCT116-C9 in the presence of gradually increasing concentrations of E7070 (Molecular Cancer Therapeutics, 2002, 1, 275-286).
These 3 cell lines HCT116-C9, HCT116-C9-C1 and HCT116-C9-C4 were each seeded at 3000 cells/well in 96-well microplates (flat-bottomed) (50 μl/well). After 24 hours, a 3-fold dilution series of each compound was added (50 μl/well). After 72 hours, the cell growth inhibitory activity was evaluated by the MTT method (Mossmann T., J. Immunol. Methods, 1983, 65, 55-63). The least squares method was used to determine the 50% growth inhibitory concentration of each compound against each cancer cell line.
Exactly the same procedure as used in Example 4 was repeated to evaluate the antiproliferative activity of both LY573636 and E7070 using E7070-resistant sub-clonal cell lines.

[5] = compound concentration 0.0006 μg/μl
[6] = compound concentration 0.0012 μg/μl
[7] = compound concentration 0.0024 μg/μl
[8] = compound concentration 0.0049 μg/μl
[9] = compound concentration 0.0098 μg/μl
[10] = compound concentration 0.0195 μg/μl
[11] = compound concentration 0.0391 μg/μl
[12] = compound concentration 0.0781 μg/μl
[13] = compound concentration 0.1563 μg/μl
[14] = compound concentration 0.3125 μg/μl
[15] = compound concentration 0.6250 μg/μl
[16] = compound concentration 1.2500 μg/μl
[17] = compound concentration 2.5000 μg/μl
[18] = compound concentration 5.0000 μg/μl
[19] = compound concentration 10.0000 μg/μl
[20] = compound concentration 20.0000 μg/μl
[21] = compound concentration 40.0000 μg/μl

Compound | Relative tumor volume at Day 22 Mean ± SD [1] | % of control [2, 5] | % of control [2, 6] | % of control [2, 7] | % of control [2, 8] | % of control [2, 9] | % of control [2, 10] | % of control [2, 11] | % of control [2, 12] | % of control [2, 13] | % of control [2, 14] | % of control [2, 15] | % of control [2, 16] | % of control [2, 17] | % of control [2, 18] | % of control [2, 19] | % of control [2, 20] | % of control [2, 21] | Relative tumor volume (RTV) Mean ± SD [4] | Tx4 Mean ± SD [4] [days] | further results
Cc1ccc(NS(=O)(=O)c2cccc(C#N)c2)c2[nH]cc(C#N)c12 [E7820, N-(3-cyano-4-methyl-1H-indol-7-yl)-3-cyanobenzenesulfonamide] | 0.80 ± 0.13 | 98.9 % of control | 102.2 % of control | 104.8 % of control | 99.4 % of control | 97.2 % of control | 88.9 % of control | 87.9 % of control | 72.3 % of control | 60.5 % of control | 56.2 % of control | 57.2 % of control | 47.8 % of control | 41.4 % of control | 37.4 % of control | 34.4 % of control | 33.1 % of control | 12.5 % of control | – | – | –
COc1cc2nccc(Oc3ccc(NC(=O)NC4CC4)c(Cl)c3)c2cc1C(N)=O [Compound A, 4-(3-chloro-4-(cyclopropylaminocarbonyl)aminophenoxy)-7-methoxy-6-quinolinecarboxamide] | 0.59 ± 0.12 | – | – | – | – | – | – | – | – | – | – | – | – | – | – | – | – | – | – | – | –
Bevacizumab: human anti-VEGF (vascular endothelial growth factor) monoclonal antibody, purchased from Genentech under the name Avastin [reference compound] | – | 96.0 % of control | 94.2 % of control | 89.5 % of control | 88.3 % of control | 80.8 % of control | 78.8 % of control | 71.0 % of control | 68.5 % of control | 64.2 % of control | 62.0 % of control | 60.1 % of control | 56.1 % of control | 51.8 % of control | 54.8 % of control | 53.2 % of control | 50.4 % of control | 51.7 % of control | 2.84 ± 0.68 | 26.3 ± 2.8 | Relative tumor volume at Day 22 Mean ± SD [3]: 5.1 ± 0.8
NS(=O)(=O)c1ccc(S(=O)(=O)Nc2cccc3c(Cl)c[nH]c23)cc1 [E7070, N-(3-chloro-1H-indol-7-yl)-4-sulfamoylbenzenesulfonamide] | – | – | – | – | – | – | – | – | – | – | – | – | – | – | – | – | – | – | 2.70 ± 0.97 | 27.0 ± 3.4 | IC50 (HCT116-C9): 127 nM
